Assay results from ChEMBL document CHEMBL1201862, “PubChem BioAssay data set” (2004).
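Values below derive from 48-hour exposures of cells grown in 96-well plates, with endpoints linearly interpolated between the two concentrations bracketing the appropriate inhibition level. Abbreviation: GI50, concentration required for 50% inhibition of growth.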 The source made the active and inactive calls. Rule as the data show it: active = GI50 up to about 1.1 µM and inactive = higher.

Experiments:
Assay in all cases: NCI tumour cell line growth inhibition, 48 h
SF-539 = system: SF-539
RXF 393 = system: RXF 393
A498 = system: A498
CCRF-CEM = system: CCRF-CEM
UO-31 = system: UO-31
TK-10 = system: TK-10
LOX IMVI = system: LOX IMVI
HCT-116 = system: HCT-116
NCI-H522 = system: NCI-H522
CAKI-1 = system: CAKI-1
M14 = system: M14
A549 = system: A549
SN12C = system: SN12C
UACC-62 = system: UACC-62
NCI/ADR-RES = system: NCI/ADR-RES
K562 = system: K562
786-0 = system: 786-0
IGROV-1 = system: IGROV-1
HOP-62 = system: HOP-62
MDA-N = system: MDA-N

Measured: GI50

N#Cc1c(N)c2c(c(-c3ccccc3)c1-c1ccccc1)C(=O)N(NC(=S)Nc1ccccc1)C2=O
inactive: SF-539 89.9 µM | RXF 393 16.9 µM | A498 43.3 µM | CCRF-CEM 51.8 µM | UO-31 34.1 µM | TK-10 84.5 µM | LOX IMVI 90.2 µM | HCT-116 56.1 µM | NCI-H522 57.3 µM | CAKI-1 > 100 µM | M14 > 100 µM | A549 64.1 µM | SN12C > 100 µM | UACC-62 73.8 µM | NCI/ADR-RES 59.3 µM | K562 88.7 µM | 786-0 > 100 µM | IGROV-1 43 µM

CC(C)CC1C(=O)NCCC(NC(=O)C(Cc2ccc(OC(C)(C)C)cc2)NC(=O)OC(C)(C)C)C(=O)NC(Cc2ccccc2)C(=O)NC(Cc2ccccc2)NC1=O (stereo not given)
inactive: HOP-62 19.5 µM | SF-539 23.2 µM | RXF 393 10.3 µM | CCRF-CEM 4.3 µM | UO-31 > 100 µM | TK-10 11.7 µM | LOX IMVI 4.6 µM | HCT-116 4.05 µM | NCI-H522 11.6 µM | CAKI-1 10.8 µM | M14 12.6 µM | MDA-N 5.82 µM | SN12C 16.5 µM | UACC-62 6.35 µM | NCI/ADR-RES > 100 µM | K562 3.02 µM | 786-0 1.71 µM | IGROV-1 16 µM

CCOC(=O)C(C)(C)/C=C\C(Cl)=C(Cl)Cl
inactive: HOP-62 > 100 µM | SF-539 > 100 µM | RXF 393 > 100 µM | CCRF-CEM 71.6 µM | UO-31 > 100 µM | TK-10 > 100 µM | LOX IMVI > 100 µM | HCT-116 > 100 µM | NCI-H522 > 100 µM | CAKI-1 > 100 µM | M14 > 100 µM | A549 > 100 µM | MDA-N > 100 µM | SN12C > 100 µM | UACC-62 > 100 µM | NCI/ADR-RES > 100 µM | K562 > 100 µM | 786-0 > 100 µM | IGROV-1 > 100 µM

Cc1c(C#N)c(N)[nH]c(=S)c1C#N
inactive: HOP-62 > 100 µM | SF-539 > 100 µM | RXF 393 > 100 µM | A498 > 100 µM | CCRF-CEM > 100 µM | UO-31 > 100 µM | TK-10 > 100 µM | LOX IMVI > 100 µM | HCT-116 > 100 µM | NCI-H522 > 100 µM | CAKI-1 > 100 µM | A549 > 100 µM | MDA-N > 100 µM | SN12C > 100 µM | UACC-62 > 100 µM | K562 > 100 µM | 786-0 > 100 µM | IGROV-1 > 100 µM

Brc1ccc2[nH]cc([C@@H]3CN[C@@H](c4c[nH]c5ccc(Br)cc45)CN3)c2c1
inactive: HOP-62 8.18 µM | SF-539 10.6 µM | RXF 393 5.48 µM | A498 15 µM | CCRF-CEM 2.16 µM | UO-31 2.42 µM | TK-10 6.92 µM | LOX IMVI 1.66 µM | HCT-116 4.18 µM | NCI-H522 2.21 µM | CAKI-1 8.93 µM | M14 5.25 µM | A549 6.15 µM | SN12C 6.04 µM | UACC-62 7.52 µM | NCI/ADR-RES 7.66 µM | K562 1.77 µM | 786-0 3.94 µM | IGROV-1 3.41 µM

O=S(=O)(O)c1ccc(/N=N/c2ccc(/N=N/c3c(O)ccc4ccc(S(=O)(=O)O)cc34)cc2)cc1
inactive: HOP-62 > 100 µM | SF-539 > 100 µM | RXF 393 > 100 µM | CCRF-CEM > 100 µM | UO-31 > 100 µM | TK-10 > 100 µM | HCT-116 > 100 µM | NCI-H522 > 100 µM | CAKI-1 > 100 µM | M14 > 100 µM | A549 > 100 µM | MDA-N > 100 µM | SN12C > 100 µM | UACC-62 > 100 µM | NCI/ADR-RES > 100 µM | K562 > 100 µM | 786-0 > 100 µM | IGROV-1 > 100 µM

CC(C)=NNC1=NC(C)(C)P(=O)(NNc2ncccn2)S1 (stereo not given)
inactive: HOP-62 > 100 µM | SF-539 > 100 µM | RXF 393 > 100 µM | A498 > 100 µM | UO-31 > 100 µM | TK-10 > 100 µM | HCT-116 > 100 µM | NCI-H522 > 100 µM | CAKI-1 > 100 µM | M14 > 100 µM | A549 > 100 µM | MDA-N > 100 µM | UACC-62 > 100 µM | K562 > 100 µM | 786-0 > 100 µM | IGROV-1 > 100 µM

Cn1c(=O)c2c(ncn2CCCCOc2ccc3c(c2)[n+]([O-])nc(N)[n+]3[O-])n(C)c1=O
inactive: HOP-62 22.7 µM | SF-539 21.1 µM | RXF 393 14.9 µM | CCRF-CEM 32.7 µM | UO-31 > 100 µM | TK-10 51.6 µM | LOX IMVI 30.7 µM | HCT-116 28.1 µM | NCI-H522 16.4 µM | CAKI-1 59.8 µM | M14 29.4 µM | A549 65.6 µM | MDA-N 26.1 µM | SN12C 37.4 µM | UACC-62 17.1 µM | NCI/ADR-RES > 100 µM | K562 20.9 µM | 786-0 29 µM | IGROV-1 15.7 µM
